# Experimental data from patent publication US20240058450A1, “BCL-XL Inhibitory Compounds Having Low Cell Permeability and Antibody Drug Conjugates Including the Same” (AbbVie Inc., priority 2014, published 2024).
# Like-named read-outs stand apart in the source and are kept apart here.
# Target: Bcl-xL (Homo sapiens, UniProt Q07817)
# Experiment: Time Resolved-Fluorescence Resonance Energy Transfer (TR-FRET) binding assay, competition with probe F-Bak
# Procedure: Tb-anti-GST antibody was purchased from Invitrogen (Catalog No. PV4216).
# For the assay, test compounds were serially diluted in DMSO starting at 50 μM (2× starting concentration; 10% DMSO) and 10 μL transferred into a 384-well plate. 10 μL of a protein/probe/antibody mix was then added to each well at final concentrations listed below:
# The samples were then mixed on a shaker for 1 minute and incubated for an additional 2 hours at room temperature. For each assay plate, a probe/antibody and protein/antibody/probe mixture were included as a negative and a positive control, respectively. Fluorescence was measured on the Envision (Perkin Elmer) using a 340/35 nm excitation filter and 520/525 (F-Bak) and 495/510 nm (Tb-labeled anti-his antibody) emission filters. Dissociation constants (Ki) were determined using Wang's equation (Wang, 1995, FEBS Lett. 360:111-114). The TR-FRET assay can be performed in the presence of varying concentrations of human serum (HS) or fetal bovine serum (FBS). Compounds were tested both without HS and in the presence of 1% HS.
# [1] = in the presence of 1% HS, read-out: Bcl-xL Binding Ki (nM, 1% HS)
# [2] = without HS, read-out: Bcl-xL Binding Ki
# Sequence of Bcl-xL (Q07817 whole entry): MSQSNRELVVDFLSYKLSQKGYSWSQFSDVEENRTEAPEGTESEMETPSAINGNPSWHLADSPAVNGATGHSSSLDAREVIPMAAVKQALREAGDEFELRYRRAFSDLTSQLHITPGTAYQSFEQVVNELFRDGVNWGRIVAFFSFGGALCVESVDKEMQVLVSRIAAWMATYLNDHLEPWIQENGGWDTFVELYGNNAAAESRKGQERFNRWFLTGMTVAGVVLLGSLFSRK
Ki [1] [nM],Ki [2] [nM],Compound
0.047,< 0.001,"Cc1c(-c2ccc(N3CCc4cccc(C(=O)Nc5nc6ccccc6s5)c4C3)nc2C(=O)O)cnn1CC12CC3(C)CC(C)(C1)CC(OCCNCCc1cn([C@@H]4O[C@H](C(=O)O)[C@@H](O)[C@H](O)[C@H]4O)nn1)(C3)C2 [Example 1.9, 8-(1,3-benzothiazol-2-ylcarbamoyl)-2-{6-carboxy-5-[1-({3-[2-({2-[1-(beta-D-glucopyranuronosyl)-1H-1,2,3-triazol-4-yl]ethyl}amino)ethoxy]-5,7-dimethyltricyclo[3.3.1.1^3,7]dec-1-yl}methyl)-5-methyl-1H-pyrazol-4-yl]pyridin-2-yl}-1,2,3,4-tetrahydroisoquinoline]"
0.099,< 0.01,"Cc1c(-c2ccc(-c3ccc4c(c3)N(C(=O)Nc3nc5ccccc5s3)CCC4)nc2C(=O)O)cnn1CC12CC3(C)CC(C)(C1)CC(OCCN(C)C1CNC1)(C3)C2 [Example 1.65, 3-{1-[(3-{2-[azetidin-3-yl(methyl)amino]ethoxy}-5,7-dimethyltricyclo[3.3.1.1^3,7]dec-1-yl)methyl]-5-methyl-1H-pyrazol-4-yl}-6-[1-(1,3-benzothiazol-2-ylcarbamoyl)-1,2,3,4-tetrahydroquinolin-7-yl]pyridine-2-carboxylic acid]"
0.51,< 0.01,"CO[C@H]1O[C@@H](Cn2cc(CCCNCCOC34CC5(C)CC(C)(CC(Cn6ncc(-c7ccc(N8CCc9cccc(C(=O)Nc%10nc%11ccccc%11s%10)c9C8)nc7C(=O)O)c6C)(C5)C3)C4)nn2)[C@H](O)[C@@H](O)[C@@H]1O [Example 1.67, methyl 6-[4-(3-{[2-({3-[(4-{6-[8-(1,3-benzothiazol-2-ylcarbamoyl)-3,4-dihydroisoquinolin-2 (1H)-yl]-2-carboxypyridin-3-yl}-5-methyl-1H-pyrazol-1-yl)methyl]-5,7-dimethyltricyclo[3.3.1.1^3,7]dec-1-yl}oxy)ethyl]amino}propyl)-1H-1,2,3-triazol-1-yl]-6-deoxy-beta-L-glucopyranoside]"
0.97,< 0.01,"Cc1c(-c2ccc(N3CCc4cccc(C(=O)Nc5nc6ccccc6s5)c4C3)nc2C(=O)O)cnn1CC12CC3(C)CC(C)(C1)CC(NC(=O)CNCCS(=O)(=O)O)(C3)C2 [Example 1.89, 6-{8-[(1,3-benzothiazol-2-yl)carbamoyl]-3,4-dihydroisoquinolin-2 (1H)-yl)-3-{1-[(3,5-dimethyl-7-{2-[(2-sulfoethyl)amino]acetamido}tricyclo[3.3.1.1^3,7]decan-1-yl)methyl]-5-methyl-1H-pyrazol-4-yl}pyridine-2-carboxylic acid]"
4.2,0.13,"Cc1c(-c2ccc(N3CCc4cccc(C(=O)Nc5nc6ccccc6s5)c4C3)nc2C(=O)O)cnn1CC12CC3(C)CC(C)(C1)CC(SCCNCCS(=O)(=O)O)(C3)C2 [Example 1.90, 6-[8-(1,3-benzothiazol-2-ylcarbamoyl)-3,4-dihydroisoquinolin-2 (1H)-yl]-3-(1-{[3,5-dimethyl-7-((2-[(2-sulfoethyl)amino]ethyl)sulfanyl)tricyclo[3.3.1.1^3,7]dec-1-yl]methyl)-5-methyl-1H-pyrazol-4-yl)pyridine-2-carboxylic acid]"
2.8,0.064,"Cc1c(-c2ccc(N3CCc4cccc(C(=O)Nc5nc6ccccc6s5)c4C3)nc2C(=O)O)cnn1CC12CC3(C)CC(C)(CC(CCCNCCS(=O)(=O)O)(C3)C1)C2 [Example 1.91, 6-{8-[(1,3-benzothiazol-2-yl)carbamoyl]-3,4-dihydroisoquinolin-2 (1H)-yl}-3-{1-[(3,5-dimethyl-7-{3-[(2-sulfoethyl)amino]propyl}tricyclo[3.3.1.1^3,7]decan-1-yl)methyl]-5-methyl-1H-pyrazol-4-yl}pyridine-2-carboxylic acid]"
